In US4634700A, “1,3-dioxolanyl derivatives, a process for their preparation, their use and pharmaceutical preparations containing these compounds” (Ludwig Heumann & Co., GmbH, priority 1984, dated 1987):
≈ marks a conversion by molar mass, not a printed value.

How the values were obtained:
Test in all cases: Growth inhibition of yeast, IC 50% determination
Type in all cases: cell-based
Sacch. cerevisiae 2 = conditions: Saccharomyces cerevisiae; Sacch. cerevisiae 2 (pathogen (+))
Text: (§1) One method of determining the microbiological activity of the compounds according to the invention on yeasts is the determination of the inhibitory concentration 50% (IC 50%).

Cand. pseudotropicalis = conditions: Kluyveromyces marxianus; Cand. pseudotropicalis (pathogen +)
Text: as §1

Geotrichum capitum = Geotrichum capitum (pathogen +)
Text: as §1

Sacch. cerevisiae 1 = conditions: Saccharomyces cerevisiae; Sacch. cerevisiae 1 (pathogen (+))
Text: as §1

Cand. curvata = Cand. curvata (pathogen +)
Text: as §1

Cand. krusei = conditions: Pichia kudriavzevii; Cand. krusei (pathogen +)
Text: as §1

Sacch. fragilis = Sacch. fragilis (pathogen (+))
Text: as §1

[1] = test system: Cryptococcus neoformans 2; conditions: Cryptococcus neoformans 2 (pathogen +)
Text: as §1

Rhodotorula spec. = Rhodotorula spec. (pathogen -)
Text: as §1

Cand. parapsilosis = conditions: Lodderomyces parapsilosis; Cand. parapsilosis (pathogen +)
Text: as §1

Sacch. uvarum = Sacch. uvarum (pathogen (+))
Text: as §1

[2] = test system: Cryptococcus neoformans 1; conditions: Cryptococcus neoformans 1 (pathogen +)
Text: as §1

Cand. albicans = conditions: Candida albicans; Cand. albicans (pathogen +)
Text: as §1

Metschnikowia pulch = Metschnikowia pulch (pathogen -)
Text: as §1

Sacch. rouxii = Sacch. rouxii (pathogen (+))
Text: as §1

Hansenula anomala = Hansenula anomala (pathogen -)
Text: as §1

`CSC(=NC#N)N1CCN(c2ccc(OC[C@H]3CO[C@](Cn4ccnc4)(c4ccc(Cl)cc4Cl)O3)cc2)CC1` (relative stereo) [Example 2, cis-1-Cyanimino-methylthio-methylene-4-[4[[2-(2,4-dichlorophenyl)-2-(1H-imidazol-1-ylmethyl)-1,3-dioxolan-4-yl]-methoxy]-phenyl]-piperazine] was tested, and the IC50 (Sacch. cerevisiae 2) was 1.25 µg/mL (≈ 2.13 µM), the IC50 (Cand. pseudotropicalis) was 0.00125 µg/mL (≈ 0.00213 µM) and the IC50 (Geotrichum capitum) was 0.125 µg/mL (≈ 0.213 µM). The IC50 (Sacch. cerevisiae 1) was 1.25 µg/mL (≈ 2.13 µM), the IC50 (Cand. curvata) was 0.125 µg/mL (≈ 0.213 µM) and the IC50 (Cand. krusei) was 0.125 µg/mL (≈ 0.213 µM). It also gave an IC50 (Sacch. fragilis) of 0.0125 µg/mL (≈ 0.0213 µM), an IC50 [1] of 0.125 µg/mL (≈ 0.213 µM) and an IC50 (Rhodotorula spec.) of 1.25 µg/mL (≈ 2.13 µM). The IC50 (Cand. parapsilosis) was 0.0125 µg/mL (≈ 0.0213 µM), the IC50 (Sacch. uvarum) was 1.25 µg/mL (≈ 2.13 µM) and the IC50 [2] was 0.0125 µg/mL (≈ 0.0213 µM). For the same compound, the IC50 (Cand. albicans) was 0.00125 µg/mL (≈ 0.00213 µM), the IC50 (Metschnikowia pulch) was 0.00125 µg/mL (≈ 0.00213 µM) and the IC50 (Sacch. rouxii) was 0.00125 µg/mL (≈ 0.00213 µM). For the same compound, the IC50 (Hansenula anomala) was 0.00125 µg/mL (≈ 0.00213 µM).
